Test results reported in patent publication US4214093A, “Amino- or guanidino-1,2,3,4-tetrahydro-1-naphthoic esters” (Torii & Co., Ltd., priority 1977, dated 1980).
pIC50: −log10 of the molar value. Counter-ions that a name gives are not always drawn. Like-named read-outs stand apart in the source and are kept apart here.

Legend:
Assay type in all cases: biochemical
Human Plasmin = Human Plasmin (Homo sapiens, UniProt P00747); test: Inhibitory effect on ester-hydrolyzing activity of human plasmin (TAMe substrate); conditions: in vitro, TAMe; for pIC50: Table 4 bracketed value, read-out: Plasmin ID50; for inhibition at 1000 µM: at 10^-3 M, read-out: Plasmin percent inhibition
Sequence of Human Plasmin (P00747 581-810 limits assumed): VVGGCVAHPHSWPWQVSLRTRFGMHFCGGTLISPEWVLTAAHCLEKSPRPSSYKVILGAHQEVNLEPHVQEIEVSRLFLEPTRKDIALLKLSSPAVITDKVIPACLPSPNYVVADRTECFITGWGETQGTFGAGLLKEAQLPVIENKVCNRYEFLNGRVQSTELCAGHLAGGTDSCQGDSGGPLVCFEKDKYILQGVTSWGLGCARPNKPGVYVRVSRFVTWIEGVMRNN
Sequence of Human Plasmin (P00747 97-580 partner limits assumed): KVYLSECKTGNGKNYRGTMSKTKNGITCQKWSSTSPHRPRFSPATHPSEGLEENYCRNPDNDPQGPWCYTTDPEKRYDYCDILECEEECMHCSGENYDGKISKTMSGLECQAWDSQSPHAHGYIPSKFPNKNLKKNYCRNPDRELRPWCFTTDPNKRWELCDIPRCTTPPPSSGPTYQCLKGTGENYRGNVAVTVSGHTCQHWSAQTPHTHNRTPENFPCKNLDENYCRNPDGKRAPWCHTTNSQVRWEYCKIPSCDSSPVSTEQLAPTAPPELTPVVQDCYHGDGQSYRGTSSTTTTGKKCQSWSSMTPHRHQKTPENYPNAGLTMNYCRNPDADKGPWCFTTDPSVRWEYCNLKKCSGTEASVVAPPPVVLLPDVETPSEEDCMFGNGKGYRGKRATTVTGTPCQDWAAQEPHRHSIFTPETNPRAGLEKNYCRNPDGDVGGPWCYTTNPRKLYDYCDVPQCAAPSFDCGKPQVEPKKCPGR
Procedure: The enzyme-inhibitory activities in vitro of the compounds of this invention were measured by the following procedure according to the method of M. Muramatsu et al. [[…]. […] After the incubation, 1.5 ml of 2 M alkaline hydroxylamine was added and thoroughly mixed, and allowed to stand at room temperature for 15 minutes. […] It was measured by using 0.1 ml of plasmin (generated by activation of plasminogen with streptokinase) and TAMe as substrate following the method described in (1).

Human Cl Esterase = molecular target: T1, Human Cl Esterase (Homo sapiens, UniProt P09871); test: Inhibitory effect on ester-hydrolyzing activity of human Cl esterase (ATEe substrate); conditions: for pIC50: pH 7.4, Table 4 bracketed value, read-out: Cl-esterase ID50; for inhibition at 1000 µM: read-out: Cl-esterase percent inhibition
T1 sequence (P09871 438-688 limits assumed): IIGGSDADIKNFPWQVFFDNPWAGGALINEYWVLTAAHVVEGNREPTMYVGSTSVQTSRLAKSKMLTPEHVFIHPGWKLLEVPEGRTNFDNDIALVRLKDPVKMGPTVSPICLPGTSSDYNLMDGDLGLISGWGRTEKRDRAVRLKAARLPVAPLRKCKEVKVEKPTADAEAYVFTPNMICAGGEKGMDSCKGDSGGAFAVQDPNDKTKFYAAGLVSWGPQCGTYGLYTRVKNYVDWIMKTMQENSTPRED
T1 sequence (P09871 16-437 partner limits assumed): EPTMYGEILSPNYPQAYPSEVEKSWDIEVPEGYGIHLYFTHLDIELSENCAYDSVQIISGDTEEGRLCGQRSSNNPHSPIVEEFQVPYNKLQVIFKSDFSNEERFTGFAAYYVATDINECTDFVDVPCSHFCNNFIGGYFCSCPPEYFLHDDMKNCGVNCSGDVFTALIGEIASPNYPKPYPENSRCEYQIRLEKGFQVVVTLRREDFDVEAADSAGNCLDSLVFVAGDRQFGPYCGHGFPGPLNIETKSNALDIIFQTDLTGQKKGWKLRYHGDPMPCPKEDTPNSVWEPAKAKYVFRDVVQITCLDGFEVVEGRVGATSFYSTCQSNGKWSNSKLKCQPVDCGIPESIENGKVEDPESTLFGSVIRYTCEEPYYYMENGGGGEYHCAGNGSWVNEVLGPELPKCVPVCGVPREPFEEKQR

Bovine Thrombin = Bovine Thrombin (Bos taurus, UniProt P00735); test: Inhibitory effect on ester-hydrolyzing activity of bovine thrombin (TAMe substrate); conditions: for inhibition at 1000 µM: at 10^-3 M, in vitro, TAMe, read-out: Thrombin percent inhibition
Procedure: The enzyme-inhibitory activities in vitro of the compounds of this invention were measured by the following procedure according to the method of M. Muramatsu et al. [M. Muramatsu, T. Onishi, S. Makino, Y. Hayashi and S. Fujii: J. Biochem., 58, 214 (1965)]
To 0.1 ml of trypsin (5 μg/ml) were added 0.5 ml of 0.1 M borate buffer solution (pH 8.6) containing 10 mM CaCl2, and 0.1 ml of a varying concentration of an inhibitor solution, and preincubation was carried out at 37° C. for 5 minutes. Then, 10 μmoles of the substrate, TAMe (tosylarginine methyl ester), was added, and incubation was preformed at 37° C. for 30 minutes.
After the incubation, 1.5 ml of 2 M alkaline hydroxylamine was added and thoroughly mixed, and allowed to stand at room temperature for 15 minutes. Then, 1.0 ml of each of 18% trichloroacetic acid, 4 N HCl and 10% FeCl3 was added and thoroughly mixed. If necessary, the mixture was centrifuged at 3,000 rpm for 10 minutes, and the absorbance of the supernatant was measured at 530 nm.
It was measured by using 0.4 ml of bovine thrombin […], 0.02 M sodium phosphate buffer solution (pH 7.4) and TAMe as substrate following the method described in (1).

Human Plasma Kallikrein = Human Plasma Kallikrein (Homo sapiens, UniProt P03952); test: Inhibitory effect on ester-hydrolyzing activity of human plasma kallikrein (TAMe substrate); conditions: for inhibition at 1000 µM: read-out: Kallikrein percent inhibition; for pIC50: Table 4 bracketed value, read-out: Kallikrein ID50
Sequence of Human Plasma Kallikrein (P03952 391-638 limits assumed): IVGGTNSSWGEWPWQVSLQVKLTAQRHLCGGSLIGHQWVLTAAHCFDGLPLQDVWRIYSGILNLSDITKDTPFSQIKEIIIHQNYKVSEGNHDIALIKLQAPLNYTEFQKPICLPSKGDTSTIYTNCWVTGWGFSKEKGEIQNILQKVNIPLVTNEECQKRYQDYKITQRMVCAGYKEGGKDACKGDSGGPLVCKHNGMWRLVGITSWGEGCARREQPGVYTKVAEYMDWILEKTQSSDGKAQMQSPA
Sequence of Human Plasma Kallikrein (P03952 20-390 partner limits assumed): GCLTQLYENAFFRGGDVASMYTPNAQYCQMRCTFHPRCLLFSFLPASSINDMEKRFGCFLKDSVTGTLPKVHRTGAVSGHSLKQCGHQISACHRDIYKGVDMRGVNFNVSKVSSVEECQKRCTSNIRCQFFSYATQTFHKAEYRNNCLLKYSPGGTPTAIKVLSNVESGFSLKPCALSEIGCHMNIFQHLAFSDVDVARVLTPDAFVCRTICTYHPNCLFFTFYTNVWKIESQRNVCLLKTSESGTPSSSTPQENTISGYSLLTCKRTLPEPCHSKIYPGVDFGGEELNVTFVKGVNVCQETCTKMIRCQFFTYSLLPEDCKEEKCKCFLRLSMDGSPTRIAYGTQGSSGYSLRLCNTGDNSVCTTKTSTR
Procedure: (§1) The enzyme-inhibitory activities in vitro of the compounds of this invention were measured by the following procedure according to the method of M. Muramatsu et al. [[…]. […] After the incubation, 1.5 ml of 2 M alkaline hydroxylamine was added and thoroughly mixed, and allowed to stand at room temperature for 15 minutes.

Trypsin = molecular target: T2, Trypsin (Bos taurus, UniProt P00760); test: Inhibitory effect on ester-hydrolyzing activity of trypsin (TAMe substrate); conditions: for inhibition at 1000 µM: read-out: Trypsin percent inhibition
T2 sequence (P00760 24-246): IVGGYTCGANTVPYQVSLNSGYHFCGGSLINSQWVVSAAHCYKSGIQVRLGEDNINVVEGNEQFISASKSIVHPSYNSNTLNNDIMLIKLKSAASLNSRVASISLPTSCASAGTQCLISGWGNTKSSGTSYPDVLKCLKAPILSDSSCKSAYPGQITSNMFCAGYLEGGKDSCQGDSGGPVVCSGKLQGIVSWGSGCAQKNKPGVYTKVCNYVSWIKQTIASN
Procedure: as §1

[1] = in vitro, TAMe, pH 8.6, 37° C., Table 4 bracketed value, read-out: Trypsin ID50

Row | pIC50 (Trypsin; [1]) | inhibition at 1000 µM (Bovine Thrombin) [%] | pIC50 (Human Plasma Kallikrein; in vitro, TAMe) | inhibition at 1000 µM (Human Plasmin) [%] | inhibition at 1000 µM (Human Cl Esterase; at 10^-3 M, in vitro, ATEe) [%] | inhibition at 1000 µM (Human Plasma Kallikrein; at 10^-3 M, in vitro, TAMe) [%] | SMILES | pIC50 (Human Plasmin) | pIC50 (Human Cl Esterase; in vitro, ATEe) | pIC50 (Bovine Thrombin) | other results
1 | – | – | – | – | – | – | COc1cccc(OC(=O)C2CCCc3ccc(NC(=N)N)cc32)c1 (stereo not drawn) [Compound 139] | 3.00 | 3.35 | 3.59 | inhibition at 1000 µM (Human Plasma Kallikrein): 36.7%; inhibition at 1000 µM (Trypsin): 46%
2 | – | < 3.2 | 3.70 | – | – | – | N=C(N)Nc1ccc2c(c1)C(C(=O)Oc1cccc3c1CCCC3)CCC2 (stereo not drawn) [Compound 167] | 3.00 | 3.38 | – | inhibition at 1000 µM (Trypsin; at 10^-3 M, in vitro, TAMe): 44.8%
3 | 4.34 | 42.9 | – | 16.6 | 3.2 | 25 | CCOC(=O)c1ccc(OC(=O)C2CCCc3ccc(N)cc32)cc1 (stereo not drawn) [Compound 94] | – | – | – | –
4 | 4.04 | 35 | – | < 3.2 | 31 | < 3.2 | Nc1ccc2c(c1)C(C(=O)Oc1ccc(OC(=O)C3CCCc4ccc(N)cc43)cc1)CCC2 (stereo not drawn) [Compound 106] | – | – | – | –
5 | 4.44 | 24.4 | 3.44 | < 3.2 | 15.2 | – | Nc1cccc2c1CCCC2C(=O)Oc1ccc(OC(=O)C2CCCc3c(N)cccc32)cc1 (stereo not drawn) [Compound 78] | – | – | – | –
6 | – | – | – | – | – | – | CCOC(=O)c1ccc(OC(=O)C2CCCc3c(NC(=N)N)cccc32)cc1 (stereo not drawn) [Compound 121, ethoxycarbonylphenyl 5-guanidino-1,2,3,4-tetrahydro-1-naphthoate hydrochloride] | – | – | – | pIC50 (Trypsin; Example 6, read-out: ID50, tosylarginine methyl ester hydrolyzing activity of trypsin (unit inferred)): 4.13
7 | 3.00 | < 3.2 | 3.00 | 46.1 | – | – | N=C(N)Nc1cccc2c1CCCC2C(=O)Oc1cccc2c1CCCC2 (stereo not drawn) [Compound 164] | – | 3.40 | – | –
8 | 4.21 | 20.3 | – | < 3.2 | < 3.2 | 28 | COC(=O)c1cccc(OC(=O)C2CCCc3c(N)cccc32)c1 (stereo not drawn) [Compound 64] | – | – | – | –
9 | 3.49 | 46 | 3.96 | 27.6 | – | – | N=C(N)Nc1ccc2c(c1)C(C(=O)Oc1cccc3ccccc13)CCC2 (stereo not drawn) [Compound 159] | – | 3.74 | – | –

Row | SMILES | pIC50 (Trypsin; [1]) | inhibition at 1000 µM (Bovine Thrombin) [%] | pIC50 (Human Plasma Kallikrein; in vitro, TAMe) | inhibition at 1000 µM (Human Plasmin) [%] | inhibition at 1000 µM (Human Cl Esterase; at 10^-3 M, in vitro, ATEe) [%] | inhibition at 1000 µM (Human Plasma Kallikrein; at 10^-3 M, in vitro, TAMe) [%] | pIC50 (Human Plasmin) | pIC50 (Human Cl Esterase; in vitro, ATEe) | pIC50 (Bovine Thrombin) | other results
10 | NC(=O)COC(=O)c1ccc(OC(=O)C2CCCc3ccc(N)cc32)cc1 (stereo not drawn) [Compound 99] | 4.06 | – | – | – | – | – | 3.52 | 3.27 | 4.18 | inhibition at 1000 µM (Human Plasma Kallikrein): 17.2%
11 | COC(=O)c1ccc(OC(=O)C2CCCc3c(N)cccc32)cc1 (stereo not drawn) [Compound 63] | 4.74 | – | – | 35 | – | – | – | – | 3.00 | inhibition at 1000 µM (Human Cl Esterase): 16.5%
12 | CN(C)C(=O)COC(=O)CCc1ccc(OC(=O)C2CCCc3ccc(N)cc32)cc1 (stereo not drawn) [Compound 103] | 4.11 | – | – | 21.5 | – | 13.3 | – | – | 3.00 | inhibition at 1000 µM (Human Cl Esterase): 27.2%
13 | N=C(N)Nc1ccc2c(c1)C(C(=O)Oc1ccc(OC(=O)C3CCCc4ccc(NC(=N)N)cc43)cc1)CCC2 (stereo not drawn) [Compound 160] | – | – | 3.64 | – | – | – | 4.00 | 3.37 | 4.27 | inhibition at 1000 µM (Trypsin): 40.5%
